Reference: PubChem BioAssay (NCI)
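Where inhibition never reached the appropriate level, the endpoint shown equals the highest concentration tested. Otherwise, values were interpolated linearly from a five-concentration, 48-hour dose response in 96-well plates. TGI: concentration producing complete growth inhibition.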

Assays:
Experiment in all cases: DTP human tumour cell line panel, 48 h
DLD-1 colon = test system: DLD-1 colon
DMS 114 small cell lung = test system: DMS 114 small cell lung
DMS 273 small cell lung = test system: DMS 273 small cell lung
HOP-18 NSCLC = test system: HOP-18 NSCLC
KM20L2 colon = test system: KM20L2 colon
M19-MEL melanoma = test system: M19-MEL melanoma
RXF-631 renal = test system: RXF-631 renal
SNB-78 CNS = test system: SNB-78 CNS
XF 498 CNS = test system: XF 498 CNS

CC(=O)n1cc(CC(C)O)c(=O)[nH]c1=O (stereo unspecified)
TGI (DLD-1 colon): > 100 µM
TGI (DMS 114 small cell lung): > 100 µM
TGI (DMS 273 small cell lung): > 100 µM
TGI (HOP-18 NSCLC): > 100 µM
TGI (KM20L2 colon): > 100 µM
TGI (M19-MEL melanoma): > 100 µM
TGI (RXF-631 renal): > 100 µM
TGI (SNB-78 CNS): > 100 µM
TGI (XF 498 CNS): > 100 µM

NC(=O)c1ccccc1NC(=O)C(=O)Nc1n[nH]c(N)n1
TGI (DLD-1 colon): > 100 µM
TGI (DMS 273 small cell lung): > 100 µM
TGI (HOP-18 NSCLC): > 100 µM
TGI (KM20L2 colon): > 100 µM
TGI (M19-MEL melanoma): > 100 µM
TGI (SNB-78 CNS): > 100 µM
TGI (XF 498 CNS): > 100 µM

C[N+](C)(C)CC(=O)N/N=C/c1oc(-c2cccc([N+](=O)[O-])c2)c(-c2cccc([N+](=O)[O-])c2)c1[N+](=O)[O-]
TGI (DLD-1 colon): > 100 µM
TGI (DMS 114 small cell lung): > 100 µM
TGI (KM20L2 colon): > 100 µM
TGI (M19-MEL melanoma): > 100 µM
TGI (RXF-631 renal): > 100 µM

O=C(Cc1nc2ccc(C(=O)c3ccccc3)cc2[nH]c1=O)C(=O)Nc1ccc(C(F)(F)F)cc1[N+](=O)[O-]
TGI (DLD-1 colon): > 100 µM
TGI (DMS 273 small cell lung): > 100 µM
TGI (HOP-18 NSCLC): > 100 µM
TGI (KM20L2 colon): > 100 µM
TGI (M19-MEL melanoma): > 100 µM
TGI (RXF-631 renal): > 100 µM
TGI (SNB-78 CNS): > 100 µM
TGI (XF 498 CNS): > 100 µM

CC1(Br)S(=O)(=O)OCCOS1(=O)=O
TGI (DLD-1 colon): > 100 µM
TGI (DMS 114 small cell lung): > 100 µM
TGI (DMS 273 small cell lung): > 100 µM
TGI (KM20L2 colon): > 100 µM
TGI (M19-MEL melanoma): > 100 µM
TGI (SNB-78 CNS): > 100 µM
TGI (XF 498 CNS): > 100 µM

C=CC(Br)(CBr)CCC(Br)C(C)(C)Br (stereo unspecified)
TGI (DLD-1 colon): 33.4 µM
TGI (DMS 114 small cell lung): 24.6 µM
TGI (DMS 273 small cell lung): 22.5 µM
TGI (HOP-18 NSCLC): 28.9 µM
TGI (M19-MEL melanoma): 27.4 µM
TGI (SNB-78 CNS): 19.6 µM

COc1ccccc1NC(=O)CC(=O)n1nc(-c2ccccc2)c(N=Nc2ccccc2[N+](=O)[O-])c1-c1ccccc1
TGI (DLD-1 colon): > 100 µM
TGI (DMS 114 small cell lung): > 100 µM
TGI (DMS 273 small cell lung): > 100 µM
TGI (HOP-18 NSCLC): > 100 µM
TGI (KM20L2 colon): > 100 µM
TGI (M19-MEL melanoma): > 100 µM
TGI (RXF-631 renal): > 100 µM
TGI (SNB-78 CNS): > 100 µM
TGI (XF 498 CNS): > 100 µM

Cc1ccc(SC2C(C)(C)N(C(C)C)P2(=O)N(C(C)C)C(C)C)cc1 (stereo unspecified)
TGI (DMS 273 small cell lung): 27.7 µM
TGI (HOP-18 NSCLC): > 100 µM
TGI (KM20L2 colon): > 100 µM
TGI (M19-MEL melanoma): > 86.6 µM
TGI (SNB-78 CNS): > 100 µM

CCOC(=O)c1ncn2c1[nH]c(=O)c1ccccc12
TGI (DMS 114 small cell lung): > 100 µM
TGI (DMS 273 small cell lung): > 100 µM
TGI (KM20L2 colon): > 100 µM
TGI (M19-MEL melanoma): > 100 µM
TGI (SNB-78 CNS): > 100 µM
TGI (XF 498 CNS): > 100 µM

CC(=O)C(CN(C)Cc1ccccc1)C(c1ccccc1)c1c(O)c2ccccc2oc1=O (stereo unspecified)
TGI (DLD-1 colon): > 100 µM
TGI (DMS 114 small cell lung): > 100 µM
TGI (DMS 273 small cell lung): > 100 µM
TGI (KM20L2 colon): > 100 µM
TGI (M19-MEL melanoma): > 100 µM
TGI (SNB-78 CNS): > 100 µM

OC1=CN=C(C2CC2)Oc2ccccc21
TGI (DLD-1 colon): > 100 µM
TGI (DMS 114 small cell lung): > 100 µM
TGI (DMS 273 small cell lung): > 100 µM
TGI (KM20L2 colon): > 100 µM
TGI (M19-MEL melanoma): > 100 µM
TGI (SNB-78 CNS): > 100 µM

O=C(O)/C(=C/c1ccccc1[N+](=O)[O-])c1cccs1
TGI (DLD-1 colon): > 100 µM
TGI (DMS 273 small cell lung): > 100 µM
TGI (HOP-18 NSCLC): > 100 µM
TGI (KM20L2 colon): > 100 µM
TGI (M19-MEL melanoma): > 100 µM
TGI (RXF-631 renal): > 100 µM
TGI (SNB-78 CNS): > 100 µM
TGI (XF 498 CNS): > 100 µM

O=S(=O)(c1ccccc1)n1cnc(CCc2ccccc2)n1
TGI (DLD-1 colon): > 100 µM
TGI (DMS 114 small cell lung): > 100 µM
TGI (DMS 273 small cell lung): > 100 µM
TGI (HOP-18 NSCLC): > 100 µM
TGI (KM20L2 colon): > 100 µM
TGI (M19-MEL melanoma): > 100 µM
TGI (SNB-78 CNS): > 100 µM

Cc1ccc(S(=O)(=O)C(C#N)c2nc3ccccc3nc2N2CCOCC2)cc1 (stereo unspecified)
TGI (DLD-1 colon): 93.1 µM
TGI (DMS 114 small cell lung): 49.5 µM
TGI (DMS 273 small cell lung): 49.4 µM
TGI (KM20L2 colon): > 100 µM
TGI (M19-MEL melanoma): 81.6 µM
TGI (SNB-78 CNS): 15.9 µM
TGI (XF 498 CNS): 81.7 µM

COC(=O)NN/C=C(\C=Nc1ccccc1)[N+](=O)[O-]
TGI (DLD-1 colon): > 100 µM
TGI (DMS 114 small cell lung): > 100 µM
TGI (DMS 273 small cell lung): > 100 µM
TGI (HOP-18 NSCLC): > 100 µM
TGI (KM20L2 colon): > 100 µM
TGI (M19-MEL melanoma): > 100 µM
TGI (RXF-631 renal): > 100 µM
TGI (XF 498 CNS): > 100 µM

CC(C)(C)c1cc(Oc2ccc(C#N)c(C#N)c2)cc(C(C)(C)C)c1
TGI (DLD-1 colon): > 100 µM
TGI (DMS 114 small cell lung): > 100 µM
TGI (DMS 273 small cell lung): 27.1 µM
TGI (HOP-18 NSCLC): > 100 µM
TGI (KM20L2 colon): > 100 µM
TGI (M19-MEL melanoma): > 100 µM
TGI (RXF-631 renal): > 100 µM
TGI (SNB-78 CNS): > 100 µM
TGI (XF 498 CNS): > 100 µM

C=C(C)C1Cc2c(cc(OC)c3c(=O)c4ccccc4n(C)c23)O1 (stereo unspecified)
TGI (DLD-1 colon): > 100 µM
TGI (DMS 114 small cell lung): > 100 µM
TGI (DMS 273 small cell lung): > 100 µM
TGI (HOP-18 NSCLC): > 100 µM
TGI (KM20L2 colon): > 100 µM
TGI (M19-MEL melanoma): > 100 µM
TGI (SNB-78 CNS): > 100 µM
TGI (XF 498 CNS): > 100 µM
